# Measurements from PubChem BioAssay AID1919015 (Molecular Pharmacology Branch, DTP, NCI, 2023).
# Tested on: OVCAR-5 complex spheroids with HUVEC/MSC, viability, % test/control
# Assay: Anticancer human tumor OVCAR-5 cell line growth inhibition [AhR];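 also: spheroids exposed to compounds for 7 days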;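 as to viability, T/C: 100% = DMSO vehicle control wells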
# Details: for IC50: curve of first compound; for viability, T/C: stronger effect = lower value
# From the text: Multicellular complex tumor spheroid response to aryl hydrocarbon receptor antagonists in combination with a variety of drugs and investigational agents in selected tumor cell lines
# The current study was undertaken to assess response to aryl hydrocarbon receptor antagonists in combination with standard-of-care drugs and investigational agents in solid tumor complex spheroid models. Complex spheroids include a stromal component modeled by human endothelial cells (HUVEC) and fibroblasts modeled by human mesenchymal stem cells (MSCs). The concentration ranges selected for each drug and investigational agent were based upon clinically achievable concentrations if the clinical Cmax of the agent was known.
# Compounds. The drugs and investigational agents: BAY 2416964 (NSC825713), GNF351 (NSC835774), CH-223191 (NSC835775), CPI-455 (NSC825282), aza-TdCyd (NSC777586), decitabine (NSC127716), belinostat (NSC758774), entinostat (NSC756642), pevonedistat (NSC761192), tazemetostat (NSC777109), talazoparib (NSC765396), olaparib (NSC753686), selinexor (NSC780203), nedisertib (M3814, NSC802822), bortezomib (NSC756655), venetoclax (NSC766270), doxorubicin (NSC123127), elimusertib (BAY189344, NSC800525), ceralasertib (AZD6738, NSC777638), TAK-243 (NSC785004), alisertib (NSC759677), etoposide (NSC141540), topotecan (NSC609699), eribulin (NSC707389), gemcitabine (NSC613327), carboplatin (NSC241240), cisplatin (NSC119875), and SN-38 (NSC673596) were obtained from the National Cancer Institute (NCI) Developmental Therapeutics Program Chemical Repository (32). The FDA-approved anticancer drug set is available from the Developmental Therapeutics Program at https://dtp.cancer.gov/organization/dscb/obtaining/available plates.htm. […] The stock solutions were prepared in dimethyl sulfoxide (DMSO, Sigma-Aldrich, St. Louis, MO, cat. D2650), except for the platinum compounds which were prepared in saline (Quality Biological, Gaithersburg, MD, cat. 114-055-101), at 800-fold the tested concentration and stored at -70 degrees C prior to their use. All drugs and investigational agents were tested over a range starting from a high concentration at or near the clinical Cmax and decreasing in half-log increments. If the clinical Cmax for an agent had not been determined, the highest concentration tested was 10 microM (Table 1).
# Cell Culture. All cells were maintained in an incubator at 37 degrees C and 5% CO2 with 95% humidity. The PDC lines were cultured according to standard operating procedures established by the NCI PDMR (https://pdmr.cancer.gov). Briefly, all PDCs were thawed and cultured in Matrigel-coated flasks prepared with a working solution of 1X Ham's F-12 nutrient mix, without supplementation (Invitrogen, Waltham, MA, cat. 11765054), 100 U/mL penicillin-streptomycin (Invitrogen, cat. 15140122), and 2.5% Matrigel (Corning Inc., Corning, NY, cat. 354248) for the first three passages. All PDCs were cultured in complete DMEM/F-12 media containing advanced DMEM/F-12 (Invitrogen, cat. 12634028), 4.9% defined fetal bovine serum, heat inactivated (HyClone Laboratories Inc., Logan, UT, cat. SH30070.03HI), 389 ng/mL hydrocortisone (Sigma-Aldrich, cat. H4001), 9.7 ng/mL human EGF recombinant protein (Invitrogen, cat. PHG0313), 23.4 microg/mL adenine (Sigma-Aldrich, cat. A2786), 97.3 U/mL penicillin-streptomycin (Invitrogen, cat. 15140122), 1.9 mM L-glutamine (Invitrogen, cat. 25030081), and 9.7 microM Y-27632 dihydrochloride (Tocris Bioscience, Bristol, United Kingdom, cat. 1254). The PDCs were cultured in complete DMEM/F12 media without 10 microM Y-27632 dihydrochloride for at least two passages prior to the screen. The established cell lines NCI-H1341 and […] were cultured in DMEM/F-12, HEPES (Invitrogen, cat. 11330032), 5% defined fetal bovine serum (HyClone Laboratories Inc., cat. SH30070.03), ITS premix universal culture supplement [insulin (5 microg/mL), transferrin (5 microg/mL), and selenious acid (5 ng/mL)] […]
smiles,measurement,setting,value
CC[C@@]1(O)C(=O)OCc2c1cc1n(c2=O)Cc2cc3c(CN(C)C)c(O)ccc3nc2-1 + CC(CO)NC(=O)c1cc(-c2ccc(Cl)cc2)nn(-c2cnn(C)c2)c1=O,IC50,second compound 0.1 µM,> 100 nM
same,IC50,second compound 0.316 µM,> 100 nM
same,IC50,second compound 1 µM,> 100 nM
same,IC50,second compound 3.16 µM,> 100 nM
same,IC50,second compound 10 µM,> 100 nM
same,"viability, T/C","second compound 0.1 µM, first compound 0.000316 µM",112%
same,"viability, T/C","second compound 0.1 µM, first compound 0.001 µM",105%
same,"viability, T/C","second compound 0.1 µM, first compound 0.00316 µM",105%
same,"viability, T/C","second compound 0.1 µM, first compound 0.01 µM",94.9%
same,"viability, T/C","second compound 0.1 µM, first compound 0.0316 µM",61.9%
same,"viability, T/C","second compound 0.1 µM, first compound 0.1 µM",50.9%
same,"viability, T/C","second compound 0.316 µM, first compound 0.000316 µM",111%
same,"viability, T/C","second compound 0.316 µM, first compound 0.001 µM",110%
same,"viability, T/C","second compound 0.316 µM, first compound 0.00316 µM",106%
same,"viability, T/C","second compound 0.316 µM, first compound 0.01 µM",99.5%
same,"viability, T/C","second compound 0.316 µM, first compound 0.0316 µM",59%
same,"viability, T/C","second compound 0.316 µM, first compound 0.1 µM",54.2%
same,"viability, T/C","second compound 1 µM, first compound 0.000316 µM",119%
same,"viability, T/C","second compound 1 µM, first compound 0.001 µM",119%
same,"viability, T/C","second compound 1 µM, first compound 0.00316 µM",112%
same,"viability, T/C","second compound 1 µM, first compound 0.01 µM",107%
same,"viability, T/C","second compound 1 µM, first compound 0.0316 µM",59%
same,"viability, T/C","second compound 1 µM, first compound 0.1 µM",56.4%
same,"viability, T/C","second compound 3.16 µM, first compound 0.000316 µM",100%
same,"viability, T/C","second compound 3.16 µM, first compound 0.001 µM",102%
same,"viability, T/C","second compound 3.16 µM, first compound 0.00316 µM",105%
same,"viability, T/C","second compound 3.16 µM, first compound 0.01 µM",93.9%
same,"viability, T/C","second compound 3.16 µM, first compound 0.0316 µM",52.9%
same,"viability, T/C","second compound 3.16 µM, first compound 0.1 µM",55.4%
same,"viability, T/C","second compound 10 µM, first compound 0.000316 µM",99.9%
same,"viability, T/C","second compound 10 µM, first compound 0.001 µM",103%
same,"viability, T/C","second compound 10 µM, first compound 0.00316 µM",100%
same,"viability, T/C","second compound 10 µM, first compound 0.01 µM",87.4%
same,"viability, T/C","second compound 10 µM, first compound 0.0316 µM",54.9%
same,"viability, T/C","second compound 10 µM, first compound 0.1 µM",62.8%
